{"source": "patent US9642821B2", "about": "“MiR-182 in the diagnosis and treatment of cancer” (Dana-Farber Cancer Institute, Inc., priority 2010, dated 2017)", "format_in_all_cases": "cell-based", "key": {"MDA-MB231 cells [1]": {"test_system": "MDA-MB231 cells", "test": "Clonogenic cell survival assay after γ-radiation, MDA-MB231", "settings": "MDA-MB231, vs control mimic", "description": "(§1) Hela cells (0.35×10^6 cells/well), MDA-MB231 cells (0.4×10^6 cells/well), 21NT cells (0.5×10^6) were seeded overnight and transfected with 10 nM of miRNA mimics or antagomirs (Ambion, Austin, Tex.) using Lipofectamine 2000. In rescue experiments, miR-182 or control mimics were co-transfected with 1 μg/ml BRCA1 (pcDNA3.1 vector). After 2 days, 1000 cells in 4 ml DMEM media (10% FBS v/v) were seeded on 6 cm tissue culture dishes in four replicates and allowed to attach overnight before treatment. PARP inhibitors (4-amino-1,8-naphthalimide (Sigma, St. Louis, Mo.) or ABT-888 (ChemieTek, Indianapolis, Ind.) in DMSO) were added to the growth media at indicated concentrations. Irradiated cells as well as cells in the presence of PARP inhibitor were allowed to form colonies for 14 days. For evaluation, formed colonies were stained with crystal violet and surviving colonies containing >50 cells were counted. Plating efficiency was 30-50%."}, "BRCA1 [2]": {"test_system": "BRCA1", "test": "BRCA1 immunoblot in MDA-MB231 cells", "settings": "MDA-MB231 cells overexpressing miR-182 vs miR-scr", "description": "(§2) In each experiment, where Western blot analysis was done, a fraction of 0.2−0.5×10^6 cells was taken out at day, 3 or 4, post-transfection. Breast cancer cell lines were collected from 6 well tissue culture plates (0.5-1×10^6 cells). Cells lysates were prepared in RIPA buffer (150 mM NaCl, 1% NP-40, 0.5% sodium deoxycholate, 0.1% SDS, 50 mM Tris, pH 8.0). Lysates of 0.1×10^6 cells of each sample plus loading buffer were loaded on 8% SDS-PAGE gels, semi-dry transferred on nitrocellulose membrane, and probed with anti-BRCA1 antibody at a 1:500 dilution (CALBIOCHEM, MS110) and anti-tubulin antibody at a 1:10,000 dilution (Sigma, Clone B-5-1-2)."}, "BRCA1 [3]": {"test_system": "BRCA1", "test": "BRCA1 expression after ectopic miRNA overexpression in HL60 cells (immunoblot, qPCR)", "description": "Analysis of the miRNAs of the miR-183 cluster was conducted using qPCR using the TaqMan MicroRNA Assay from Applied Biosystems as per the manufacturer's instructions and normalized to RNU6B snRNA. Analysis of mRNA expression was carried out with qPCR using the SYBR Green master mix (Applied Biosystems, Foster City, Calif.) according to the manufacture's manual and the BioRad iCycler. The mRNA (1 μg) was reverse transcribed with 50 ng random primers using 100 U moloney murine leukemia virus (MMLV) reverse transcriptase (Epicentre, Madison, Wis.) according to the manufacturer's manual. Results were normalized to 5SrRNA or GAPDH.\nas §2"}, "BRCA1 transcript": {"test_system": "BRCA1 transcript", "test": "Immunoprecipitation of HA-AGO1/miRNA complex, qRT-PCR of bound transcripts, MDA-MB231", "settings": "MDA-MB231, HA-AGO1 IP, normalized to 5S rRNA", "description": "miR-182 cDNA and miR-17 cDNA was cloned from HL60 cDNA in pcDNA3.1-Puro expression vector (Invitrogen, Carlsbad, Calif.) using the following primers: […]\nMDA-MB231 cells (0.5×10^6 cells) were co-transfected with 1 μg of HA-AGO1 (pIRES-FLAG/HA vector, Addgene) and 0.5 μg of expression vector for miR-182/miR-17 or miR-scr using Lipofectamine 2000. After 2 days cells were harvested using 400 μl lysis buffer (100 mM KCl, 5 mM MgCl2, 10 mM Hepes, pH 7.0, 0.5% Nonidet P-40) containing freshly added RNase inhibitor, RNaseOUT (Invitrogen, Carlsbad, Calif.) and Protease Inhibitor Cocktail (Roche, Basel, Switzerland). After centrifugation, a 50 μl aliquot of supernatant was taken as the input for subsequent RNA extraction. The remaining supernatant was gently shaken with HA-beads (HA-probe Santa Cruz sc-7392) for 4 h at 4° C. in spin columns (Pierce Spin Columns-Screw Cap). The columns were drained, washed and the retained beads were treated with 5 U DNaseI in NT2 buffer (50 mM Tris, pH7.4, 150 mM NaCl, 1 mM MgCl2, 0.05% Nonidet P-40) for 10 minutes at 37° C., washed with NT2 buffer and then treated with Proteinase K in NT2 buffer plus 1% SDS for 30 minutes at 55° C. […] RNA was reverse transcribed (see RNA isolation) and analyzed with qPCR for enrichment of mRNA of miR-182/miR-17 predicted targets."}, "U2OS-DR-GFP cells": {"test_system": "U2OS-DR-GFP cells", "test": "Homologous recombination (HR) DR-GFP reporter assay", "settings": "U2OS DR-GFP stably expressing miR-182, I-SceI", "description": "U2OS-DR-GFP cells, with a single, stably integrated copy of the transgenic reporter DR-GFP were seeded (0.35×10^6 cells/well) into the wells of a 6-well tissue culture plate, transfected with a control and an miR-182 expression construct. Cells were selected for 4 weeks with 100 μg/ml of puromycin. mir-182 overexpression was confirmed with qPCR (FIG. 3C). HR assay was done as described (Chowdhury et al., Mol. Cell, 31:33-46 (2008)). Briefly, 2×10^5 cells plated overnight in 24-well plates were transfected with 0.8 μg of I-SceI expression plasmid (pCBA Sce) using Lipofectamine 2000. 2 days later, GFP positive cells were assayed by FACScan flow cytometer."}, "MDA-MB231 cells [4]": {"test_system": "MDA-MB231 cells", "test": "Clonogenic cell survival assay with PARP inhibitors, MDA-MB231", "settings": "MDA-MB231, 14 days, vs control mimic", "description": "as §1"}}, "note": "“Also recorded” adds a separate entry of the source.", "data": [{"substance": "miR-182: microRNA with sequence 5′ UUUGGCAAUGGUAGAACUCACACU 3′ (SEQ ID NO:1); given as mimic (Ambion) or expression vector (UUUGGCAAUGGUAGAACUCACACU; listed as RNA, chemistry not given here; listed as Homo sapiens)", "values": [{"measurement": "sensitivity to IR (clonogenic survival)", "setting": "MDA-MB231 cells [1]", "value": "significantly more sensitive"}, {"measurement": "sensitivity to IR (clonogenic survival)", "setting": "MDA-MB231 cells [1]; listed as miR-182 mimic", "value": "significantly enhanced sensitivity to IR"}, {"measurement": "BRCA1 protein level", "setting": "BRCA1 [2]", "value": "sharply reduced; also recorded: lower levels; also recorded: diminish BRCA1 levels; also recorded: down regulates BRCA1 protein levels"}, {"measurement": "BRCA1 protein level", "setting": "BRCA1 [3]; HL60 cells transiently transfected with expression vectors, Western blot", "value": "significant decrease"}, {"measurement": "BRCA1 mRNA level", "setting": "BRCA1 [3]; ectopic overexpression, data not shown", "value": "moderate decrease"}, {"measurement": "association of miRNA/AGO1 complex with BRCA1 transcript", "setting": "BRCA1 transcript", "value": "associates selectively; also recorded: significantly enriched"}, {"measurement": "HR-mediated DSB repair efficiency (GFP positive cells)", "setting": "U2OS-DR-GFP cells", "value": "significantly reduced HR-efficiency; also recorded: impedes homologous recombination-mediated repair"}, {"measurement": "sensitivity to PARP1 inhibitor ABT-888 (clonogenic survival)", "setting": "MDA-MB231 cells [4]", "value": "sensitize MDA-MB231 cells to PARP1 inhibition"}, {"measurement": "sensitivity to PARP1 inhibitor ANI (clonogenic survival)", "setting": "MDA-MB231 cells [4]", "value": "sensitize MDA-MB231 cells to PARP1 inhibition"}, {"measurement": "sensitivity to PARP1 inhibitor ABT-888 (clonogenic survival)", "setting": "MDA-MB231 cells [4]; listed as 182 mimic", "value": "impacts sensitivity to PARP1 inhibitor ABT-888"}, {"measurement": "sensitivity to PARP1 inhibitor ANI (clonogenic survival)", "setting": "MDA-MB231 cells [4]; listed as miR-182 mimic", "value": "significantly enhanced sensitivity to ANI"}]}]}
